From US20220380310A1, “P2X7R ANTAGONISTS” (priority 2019, published 2022)
Where a name gives a salt, the structure may show the parent alone.

What was measured:
P2X2R = biological target: T1, P2X2R (Homo sapiens, UniProt Q9UBL9); test: Receptor-mediated calcium entrance assay (Calcium Assay), P2X2R; type: cell-based; conditions: for remaining activity at 5 µM: compound at 5 μM, read-out: Percentage of activity remains in the presence of the compound at 5 μM, P2X2R (Calcium Assay)
T1 construct: expressed in transfected cells; host or cells: HEK-293
T1 sequence (Q9UBL9 1-471): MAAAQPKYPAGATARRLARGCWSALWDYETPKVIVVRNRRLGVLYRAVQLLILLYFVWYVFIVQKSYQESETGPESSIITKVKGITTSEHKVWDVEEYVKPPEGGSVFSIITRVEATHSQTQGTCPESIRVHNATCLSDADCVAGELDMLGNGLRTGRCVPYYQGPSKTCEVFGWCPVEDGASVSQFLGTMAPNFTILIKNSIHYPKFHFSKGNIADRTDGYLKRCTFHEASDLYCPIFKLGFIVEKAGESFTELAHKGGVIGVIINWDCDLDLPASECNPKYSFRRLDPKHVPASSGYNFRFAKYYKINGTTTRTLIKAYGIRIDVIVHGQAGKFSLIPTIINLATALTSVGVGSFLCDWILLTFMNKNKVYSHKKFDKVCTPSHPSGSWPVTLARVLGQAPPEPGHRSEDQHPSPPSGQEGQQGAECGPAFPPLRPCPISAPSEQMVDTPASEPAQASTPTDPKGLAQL

[1] = biological target: T2, Human P2X4 receptor (P2X4R) (Homo sapiens, UniProt Q99571); test: Receptor-mediated calcium entrance assay (Calcium Assay), P2X4R transfected HEK-293 cells; type: cell-based; conditions: HEK293, compound at 5 μM, 1 mM ATP stimulus, read-out: Percentage of activity remains in the presence of the compound at 5 μM, P2X4R (Calcium Assay)
T2 construct: expressed in transfected cells; host or cells: HEK-293
T2 sequence (Q99571 1-388): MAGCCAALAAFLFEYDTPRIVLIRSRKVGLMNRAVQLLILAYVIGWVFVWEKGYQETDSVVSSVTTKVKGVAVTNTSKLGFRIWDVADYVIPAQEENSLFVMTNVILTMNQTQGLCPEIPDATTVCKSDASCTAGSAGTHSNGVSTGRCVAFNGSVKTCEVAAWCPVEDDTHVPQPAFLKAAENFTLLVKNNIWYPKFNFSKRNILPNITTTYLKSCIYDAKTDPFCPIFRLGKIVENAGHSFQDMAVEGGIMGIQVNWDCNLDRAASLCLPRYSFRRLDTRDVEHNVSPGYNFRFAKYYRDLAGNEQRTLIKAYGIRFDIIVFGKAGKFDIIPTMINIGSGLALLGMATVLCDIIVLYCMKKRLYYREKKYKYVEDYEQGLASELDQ
Text: Human P2X1 receptor (P2X1R) is a member of P2X family. […] Thus, the calcium assay was used. In the calcium assay, P2X receptor activation leads to opening of ion channels, which increases intracellular calcium concentration. The increased intracellular calcium concentration can be detected by a calcium indicator dye such as Fluo-4 or Fluo-8. Molecular Probes™ Fluo-4, AM (Cat. No. F14201 from Fisher Scientific) was used in the assay. The procedures were similar as described in the Yo-Pro-1 assay until day 4. The construct of P2X1R for transient transfection to HEK-293 cells was the courtesy from Dr. Richard J. Evans laboratory (J. Biol. Chem. 279:9043-9055). After transfection and expression, on day 4 cells were washed twice by Ca-HBSS (The composition (in mM) was NaCl 135, HEPES 10, D-glucose 10, KCl 5.4, CaCl2 2, and MgCl2 1, pH to 7.4 by NaOH) and incubated in dye loading solution (The solution contained 2.5 μM Fluo-4, 1 mM probenecid, and 1× PowerLoad (Cat. No. P10020 from Fisher Scientific) in Ca-HBSS) for 70 minutes at 37° C. Then the extracellular loading dye was washed away and cells were incubated at Ca-HBSS containing 1 mM probenecid for 30 minutes. Before the final steps, probenecid was washed away with Ca-HBSS. The assay was performed by adding 25 μl of Ca-HBSS followed by 25 μl of various test compounds. At this point, the base level of fluorescence was obtained through the microplate reading—the base microplate reading for this assay. At the end, the stimulus (ATP at 20 μM was the final concentration for P2X1R) was added to activate the P2X1R. Activation of P2X1R opened the channel to allow influx of calcium, which was represented by fluorescence increases that were measured by the microplate device with excitation at 475 nm and emission wavelength in the range of 500-550 nm. The data were analyzed the same way as described before: The result of each well was first normalized by its corresponding base microplate reading. Then, the negative control signal was subtracted from. In the negative control, the test compound and the stimulus were replaced by Ca-HBSS. […] An average of six highest values of the plate (AVG) were considered as 100% and the value of each well was divided by AVG and presented as the relative values in percentages.
Human P2X4 receptor (P2X4R) construct (J. Biol. Chem. 290, 7930-7942) was transiently transfected to HEK-293 cells and the calcium assay was performed as described above. When 1 mM ATP was used as stimulus, an increased receptor mediated activity leading to intracellular calcium elevation can be seen in less than 10 minutes.

Row | Compound | remaining activity at 5 µM (P2X2R) [%] | remaining activity at 5 µM [1] [%] | Percentage of activity remains in the presence of the compound at 5 μM, P2X2R (Calcium Assay) (P2X2R) [%]
1 | O=C(NCCc1ccccc1)C1CCN(S(=O)(=O)c2ccc(N3CCCC3)cc2)CC1 [#21] | 94.3 | 31 | 
2 | CN1CCN(c2ccc(S(=O)(=O)N3CCCC(NC(=O)CCc4ccccc4)C3)cc2)CC1 (stereo not shown) [#18] | 73.1 | 61.6 | 
3 | COc1ccc(S(=O)(=O)N2CCCC(NC(=O)CCc3ccccc3)C2)cc1 (stereo not shown) [#2] | 85.7 | 56.4 | 
4 | O=C(CCc1ccccc1)NC1CCCN(S(=O)(=O)c2ccc(-n3cc(Br)cn3)cc2)C1 (stereo not shown) [#9] | 61.3 | 84.5 | 
5 | CS(=O)(=O)c1ccc(N2CCCC(NC(=O)CCc3ccccc3)C2)cc1 (stereo not shown) [#1] | 61.3 | 71.9 | 
6 | CCOc1ccc(S(=O)(=O)N2CCCC(NC(=O)CCc3ccccc3)C2)cc1 (stereo not shown) [#37] | 90.3 | 54.8 | 
7 | O=C(CCc1ccccc1)N1CCN(S(=O)(=O)c2ccc(N3CCCCC3)cc2)CC1 [#34] | 65.2 | 53.8 | 
8 | CCCCNc1ccc(S(=O)(=O)N2CCCC(NC(=O)CCc3ccccc3)C2)cc1 (stereo not shown) [#15] | 80.4 | 63.8 | 
9 | O=C(NCCc1ccccc1)C1CCN(S(=O)(=O)c2ccc(N3CCCCC3)cc2)CC1 [#20] | 68.1 | 50.6 | 
10 | Cc1nc(N=Nc2ccc(S(=O)(=O)[O-])cc2S(=O)(=O)[O-])c(COP(=O)([O-])[O-])c(C=O)c1O.[Na+].[Na+].[Na+].[Na+] [PPADS, Pyridoxalphosphate-6-azophenyl-2′,4′-disulfonic acid tetrasodium, reference compound] |  |  | 6.2
11 | NC(=O)c1cc(Br)cc(N2CCOCC2)c1 [#28] | 50.7 | 85.4 | 
12 | O=C(CCc1ccccc1)N1CCNCC1 [#29, hydrochloride] | 83.3 | 67.1 | 
13 | O=C(CCc1ccccc1)NC1CCCN(S(=O)(=O)c2ccc(N3CCCC3)cc2)C1 (stereo not shown) [#13] | 67.4 | 88.8 | 
14 | O=C(CCc1ccccc1)N1CCN(S(=O)(=O)c2ccc(N3CCCC3)cc2)CC1 [#35] | 43.7 | 70.7 | 
15 | O=C(CCc1ccccc1)N1CCN(S(=O)(=O)c2ccc(F)cc2)CC1 [#30] | 67.5 | 76.8 | 
16 | O=S(=O)(c1ccccc1)C1CN(S(=O)(=O)c2ccc(N3CCOCC3)cc2)C1 [#11] | 52 | 59.6 | 
17 | CC(C)(C)OC(=O)N1CCN(c2ccc(S(=O)(=O)N3CCC(C(=O)NCCc4ccccc4)CC3)cc2)CC1 [#22] | 85.8 | 42.1 | 
18 | CN(C)c1ccc(S(=O)(=O)N2CCCC(NC(=O)CCc3ccccc3)C2)cc1 (stereo not shown) [#14] | 72.7 | 70.9 | 
19 | O=C1CCC(N2Cc3c(NC(=O)CCc4ccccc4)cccc3C2=O)C(=O)N1 (stereo not shown) [#16] | 77 | 60.7 | 
20 | O=C(CCc1ccccc1)N1CCN(S(=O)(=O)c2ccc(NC3CCCCC3)cc2)CC1 [#33] | 83.6 | 83.9 | 
21 | O=C(CCc1ccccc1)NC1CCCN(S(=O)(=O)c2ccc(F)cc2)C1 (stereo not shown) [#3] | 98 | 67 | 
22 | CCCCNc1ccc(S(=O)(=O)N2CCC(C(=O)O)CC2)cc1 [#27] | 67.2 | 59.9 | 
23 | O=C(CCc1ccccc1)NC1CCCN(S(=O)(=O)c2ccc(N3CCOCC3)cc2)C1 (stereo not shown) [#12] | 64.8 | 69.1 | 
24 | O=S(=O)(c1ccccc1)C1CN(S(=O)(=O)c2ccc(N3CCCCC3)cc2)C1 [#10] | 69.3 | 69.5 | 
25 | O=C(NCCc1ccccc1)C1CCCN(S(=O)(=O)c2ccc(N3CCCC3)cc2)C1 (stereo not shown) [#25] | 70 | 61 | 
26 | O=C(CCc1ccccc1)NC1CCCN(S(=O)(=O)Cc2ccc(Br)cc2)C1 (stereo not shown) [#8] | 94.6 | 50.9 | 
27 | CC(C)(C)OC(=O)N1CCN(c2ccc(S(=O)(=O)N3CCN(C(=O)CCc4ccccc4)CC3)cc2)CC1 [#31] | 78.3 | 81.8 | 
28 | CC(C)S(=O)(=O)c1ccc(N2CCCC(NC(=O)CCc3ccccc3)C2)cc1 (stereo not shown) [#7] | 78.8 | 76.8 | 
29 | O=C(NCCc1ccccc1)C1CCN(S(=O)(=O)c2ccc(N3CCOCC3)cc2)CC1 [#23] | 57.7 | 70.7 | 

Further lines, with some results ahead:

Row | remaining activity at 5 µM (P2X2R) [%] | remaining activity at 5 µM [1] [%] | Compound | Percentage of activity remains in the presence of the compound at 5 μM, P2X2R (Calcium Assay) (P2X2R) [%]
30 | 83 | 63.5 | CC1CCCN(c2ccc(S(=O)(=O)N3CCCC(NC(=O)CCc4ccccc4)C3)cc2)C1 (stereo not shown) [#44] | 
31 | 58 | 49.7 | NS(=O)(=O)c1ccc(N2CCCC(NC(=O)CCc3ccccc3)C2)cc1 (stereo not shown) [#53] | 
32 | 86.6 | 68.2 | CC(C)OC1CCN(c2ccc(S(=O)(=O)N3CCCC(NC(=O)CCc4ccccc4)C3)cc2)CC1 (stereo not shown) [#39] | 
33 | 52.7 | 37.7 | O=C(CCc1ccccc1)NC1CCCN(c2ccc(S(=O)(=O)N3CCCC3)cc2)C1 (stereo not shown) [#55] | 
34 | 82.6 | 35.3 | CC(C)N(C(C)C)S(=O)(=O)c1ccc(N2CCCC(NC(=O)CCc3ccccc3)C2)cc1 (stereo not shown) [#49] | 
35 | 71 | 75 | O=C(CCc1ccccc1)NC1CCCN(S(=O)(=O)c2ccc(N3CCC(F)(F)CC3)cc2)C1 (stereo not shown) [#46] | 
36 | 73.5 | 62.9 | CC1CCN(c2ccc(S(=O)(=O)N3CCCC(NC(=O)CCc4ccccc4)C3)cc2)CC1 (stereo not shown) [#40] | 
37 | 61.1 | 39.9 | CC(C)(C)OC(=O)N1CCC(C2CCN(c3ccc(S(=O)(=O)N4CCCC(NC(=O)CCc5ccccc5)C4)cc3)CC2)CC1 (stereo not shown) [#41] | 
38 | 72.3 | 52.8 | O=C(CCc1ccccc1)NC1CCCN(c2ccc(S(=O)(=O)NCc3ccco3)cc2)C1 (stereo not shown) [#52] | 
39 | 62.7 | 55.8 | O=C(CCc1ccccc1)NC1CCCN(S(=O)(=O)c2ccc(N3CCC(C(F)(F)F)CC3)cc2)C1 (stereo not shown) [#42] | 
40 | 81.2 | 71.3 | O=C(CCc1ccccc1)NC1CCCN(c2ccc(S(=O)(=O)NC3CCCCC3)cc2)C1 (stereo not shown) [#51] | 
41 | 49.4 | 61.9 | O=C(CCc1ccccc1)NC1CCCN(S(=O)(=O)c2ccc(N3CCCCC3)c(Cl)c2)C1 (stereo not shown) [#45] | 
42 | 67.2 | 84.3 | O=C(CCc1ccccc1)NC1CCCN(c2ccc(S(=O)(=O)Nc3ccccc3)cc2)C1 (stereo not shown) [#50] | 
43 | 56 | 48.4 | O=C(CCc1ccccc1)NC1CCCN(S(=O)(=O)c2ccc(F)c(Cl)c2)C1 (stereo not shown) [#43] | 
